Test results taken from patent publication US8691855B2, “Compounds, isomer thereof, or pharmaceutically acceptable salts thereof as vanilloid receptor antagonist and pharmaceutical compositions containing the same” (Amorepacific Corporation, priority 2008, dated 2014).

Target: T1, vanilloid receptor (Rattus norvegicus, UniProt O35433)
T1 construct: DRG nerve cells from the primary culture of 2 days were equilibrated; endogenous in cells; host or cells: primary culture of dorsal root ganglion neurons from neonatal SD rats
T1 sequence (O35433 whole entry): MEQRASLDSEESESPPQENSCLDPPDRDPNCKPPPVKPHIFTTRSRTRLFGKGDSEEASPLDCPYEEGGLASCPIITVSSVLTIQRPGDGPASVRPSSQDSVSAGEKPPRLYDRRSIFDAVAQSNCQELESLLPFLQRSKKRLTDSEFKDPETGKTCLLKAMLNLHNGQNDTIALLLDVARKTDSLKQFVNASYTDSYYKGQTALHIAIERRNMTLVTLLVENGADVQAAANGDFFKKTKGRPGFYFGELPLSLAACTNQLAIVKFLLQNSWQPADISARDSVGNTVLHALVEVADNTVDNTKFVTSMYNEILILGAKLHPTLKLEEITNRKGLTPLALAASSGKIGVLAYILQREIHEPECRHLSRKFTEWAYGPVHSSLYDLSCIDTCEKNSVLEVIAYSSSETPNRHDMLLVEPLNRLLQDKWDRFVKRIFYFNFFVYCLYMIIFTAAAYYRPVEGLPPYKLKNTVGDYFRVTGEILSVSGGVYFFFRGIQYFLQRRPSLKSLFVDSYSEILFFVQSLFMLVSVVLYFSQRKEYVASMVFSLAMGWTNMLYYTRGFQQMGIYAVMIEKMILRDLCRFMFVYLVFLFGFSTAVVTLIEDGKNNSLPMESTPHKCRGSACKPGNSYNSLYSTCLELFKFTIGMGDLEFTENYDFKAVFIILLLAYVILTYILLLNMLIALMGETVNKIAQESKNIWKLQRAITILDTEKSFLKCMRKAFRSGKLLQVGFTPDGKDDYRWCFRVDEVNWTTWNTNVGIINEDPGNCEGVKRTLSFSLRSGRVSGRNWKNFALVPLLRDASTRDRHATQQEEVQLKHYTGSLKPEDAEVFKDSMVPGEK
Experiment: 45Ca influx test (antagonist calcium uptake test) in rat DRG neurons stimulated with capsaicin
Assay type: cell-based
Settings: neonatal SD rat DRG neurons, capsaicin 0.5 μM; for IC50: 45Ca
How it was run: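 Neonatal SD rat DRG neurons, cultured 2 days with NGF 200 ng/ml, exposed to test compound plus 0.5 μM capsaicin and 45Ca (10 μCi/ml) in HEPES-buffered Ca/Mg-free HBSS, pH 7.4, 10 min at room temperature. Influx counted by scintillation; activity as percent inhibition of the 0.5 μM capsaicin maximal response.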

[1] = DRG neuron, read-out: Antagonist Calcium Uptake Test, percent inhibition of capsaicin response

| Compound | IC50 | also measured |
| --- | --- | --- |
| C[C@@H](NC(=O)c1coc(-c2cc(Cl)cc(Cl)c2)n1)c1cc(F)c(NS(C)(=O)=O)c(F)c1 [Example 83, 2-(3,5-Dichloro-phenyl)-oxazole-4-carboxylic acid [1-(3,5-difluoro-4-methanesulfonylamino-phenyl)-ethyl]-amide] | 880 nM | – |
| C[C@@H](NC(=O)c1coc(-c2cccc(Cl)c2Cl)n1)c1cc(F)c(NS(C)(=O)=O)c(F)c1 [Example 85, 2-(2,3-Dichloro-phenyl)-oxazole-4-carboxylic acid [1-(3,5-difluoro-4-methanesulfonylamino-phenyl)-ethyl]-amide] | 1200 nM | – |
| C[C@@H](NC(=O)c1coc(-c2ccc(Cl)c(Cl)c2)n1)c1cc(F)c(NS(C)(=O)=O)c(F)c1 [Example 86, 2-(3,4-Dichloro-phenyl)-oxazole-4-carboxylic acid [1-(3,5-difluoro-4-methanesulfonylamino-phenyl)-ethyl]-amide] | 1000 nM | – |
| C[C@@H](NC(=O)c1coc(-c2cccc3ccccc23)n1)c1cc(F)c(NS(C)(=O)=O)c(F)c1 [Example 88, 2-Naphthalen-1-yl-oxazole-4-carboxylic acid [1-(3,5-difluoro-4-methanesulfonylamino-phenyl)-ethyl]-amide] | 720 nM | – |
| C[C@@H](NC(=O)c1coc(-c2ccc3ccccc3c2)n1)c1cc(F)c(NS(C)(=O)=O)c(F)c1 [Example 89, 2-Naphthalen-2-yl-oxazole-4-carboxylic acid [1-(3,5-difluoro-4-methanesulfonylamino-phenyl)-ethyl]-amide] | 2700 nM | – |
| Cc1cccc(-c2nc(C(=O)N[C@H](C)c3cc(F)c(NS(C)(=O)=O)c(F)c3)co2)c1C [Example 90, 2-(2,3-Dimethyl-phenyl)-oxazole-4-carboxylic acid [1-(3,5-difluoro-4-methanesulfonylamino-phenyl)-ethyl]-amide] | 910 nM | – |
| C[C@@H](NC(=O)c1coc(-c2ccc(F)c(C(F)(F)F)c2)n1)c1cc(F)c(NS(C)(=O)=O)c(F)c1 [Example 92, 2-(4-Fluoro-3-trifluoromethyl-phenyl)-oxazole-4-carboxylic acid [1-(3,5-difluoro-4-methanesulfonylamino-phenyl)-ethyl]-amide] | 1700 nM | – |
| C[C@@H](NC(=O)c1ccc(-c2cc(C3CC3)cc(C(F)(F)F)c2)o1)c1cc(F)c(NS(C)(=O)=O)c(F)c1 [Example 95, 5-(3-Cyclopropyl-5-trifluoromethyl-phenyl)-furan-2-carboxylic acid [1-(3,5-difluoro-4-methanesulfonylamino-phenyl)-ethyl]-amide] | – | inhibition at 1 µM [1]: 66% |
| COc1cc(-c2nc(C(=O)N[C@H](C)c3cc(F)c(NS(C)(=O)=O)c(F)c3)co2)cc(C(F)(F)F)c1 [Example 97, 2-(3-Methoxy-5-trifluoromethyl-phenyl)-oxazole-4-carboxylic acid [1-(3,5-difluoro-4-methanesulfonylamino-phenyl)-ethyl]-amide] | 1400 nM | – |
| CSc1cccc(-c2nc(C(=O)N[C@H](C)c3cc(F)c(NS(C)(=O)=O)c(F)c3)co2)c1 [Example 98, 2-(3-Methylsulfanyl-phenyl)-oxazole-4-carboxylic acid [1-(3,5-difluoro-4-methanesulfonylamino-phenyl)-ethyl]-amide] | 1700 nM | – |
| Cc1cc(C)cc(-c2nc(C(=O)N[C@H](C)c3cc(F)c(NS(C)(=O)=O)c(F)c3)co2)c1 [Example 99, 2-(3,5-Dimethyl-phenyl)-oxazole-4-carboxylic acid [1-(3,5-difluoro-4-methanesulfonylamino-phenyl)-ethyl]-amide] | 2000 nM | – |
| Cc1cc(CNC(=O)c2ccc(-c3cccc(C(F)(F)F)c3)o2)cc(F)c1NS(C)(=O)=O [Example 103, 5-(3-Trifluoromethyl-phenyl)-furan-2-carboxylic acid 3-fluoro-4-methanesulfonylamino-5-methyl-benzylamide] | – | inhibition at 3 µM [1]: 84% |
| C#Cc1cc(CNC(=O)c2ccc(-c3cccc(C(F)(F)F)c3)o2)cc(F)c1NS(C)(=O)=O [Example 104, 5-(3-Trifluoromethyl-phenyl)-furan-2-carboxylic acid 3-ethynyl-5-fluoro-4-methanesulfonylamino-benzylamide] | – | inhibition at 1 µM [1]: 100% |
| C=Cc1cc(CNC(=O)c2ccc(-c3cccc(C(F)(F)F)c3)o2)cc(F)c1NS(C)(=O)=O [Example 105, 5-(3-Trifluoromethyl-phenyl)-furan-2-carboxylic acid 3-fluoro-4-methanesulfonylamino-5-vinyl-benzylamide] | – | inhibition at 0.3 µM (DRG neuron, @0.3 μM, read-out: Antagonist Calcium Uptake Test, percent inhibition of capsaicin response): 96% |
| C[C@@H](NC(=O)c1ccc(-c2cc(C3CC3)cc(C3CC3)c2)o1)c1cc(F)c(NS(C)(=O)=O)c(F)c1 [Example 108, 5-(3,5-Dicyclopropyl-phenyl)-furan-2-carboxylic acid [1-(3,5-difluoro-4-methanesulfonylamino-phenyl)-ethyl]-amide] | 520 nM | – |
| C[C@H](NC(=O)c1ccc(-c2cccc(C(F)(F)F)c2)o1)c1cc(F)c(NS(C)(=O)=O)c(F)c1 [Example 109, (S)-5-(3-Trifluoromethyl-phenyl)-furan-2-carboxylic acid [1-(3,5-difluoro-4-methanesulfonylamino-phenyl)-ethyl]-amide] | 270 nM | – |
| CS(=O)(=O)Nc1c(F)cc(CNC(=O)c2ccc(-c3cccc(C(F)(F)F)c3)o2)cc1F [Example 110, 5-(3-Trifluoromethyl-phenyl)-furan-2-carboxylic acid 3,5-difluoro-4-methanesulfonylamino-benzylamide] | 620 nM | – |
| C[C@@H](NC(=O)c1ccc(-c2cccc(C(F)(F)F)c2)o1)c1ccc(NS(C)(=O)=O)c(F)c1 [Example 111, 5-(3-Trifluoromethyl-phenyl)-furan-2-carboxylic acid [1-(3-fluoro-4-methanesulfonylamino-phenyl)-ethyl]-amide] | 240 nM | – |
| Cc1cc(CNC(=O)c2ccc(-c3cccc(C(F)(F)F)c3)o2)ccc1NS(C)(=O)=O [Example 112, 5-(3-Trifluoromethyl-phenyl)-furan-2-carboxylic acid 4-methanesulfonylamino-3-methyl-benzylamide] | 220 nM | – |
| CS(=O)(=O)Nc1c(F)cc(CNC(=O)c2ccc(-c3cccc(C(F)(F)F)c3)o2)cc1C(F)(F)F [Example 113, 5-(3-Trifluoromethyl-phenyl)-furan-2-carboxylic acid 4-methanesulfonylamino-3-fluoro-5-trifluomethyl-benzylamide] | 1400 nM | – |
| C=Cc1cc(-c2ccc(C(=O)N[C@H](C)c3cc(F)c(NS(C)(=O)=O)c(F)c3)o2)cc(C(F)(F)F)c1 [Example 114, 5-(3-Trifluoromethyl-5-vinyl-phenyl)-furan-2-carboxylic acid [1-(3,5-difluoro-4-methanesulfonylamino-phenyl)-ethyl]-amide] | – | inhibition at 3 µM [1]: 93% |
| C[C@@H](NC(=O)c1coc(-c2cc(Br)cc(C3CC3)c2)n1)c1cc(F)c(NS(C)(=O)=O)c(F)c1 [Example 115, 2-(3-Bromo-5-cyclopropyl-phenyl)-oxazole-4-carboxylic acid [1-(3,5-difluoro-4-methanesulfonylamino-phenyl)-ethyl]-amide] | 770 nM | – |
| CCc1cc(-c2ccc(C(=O)N[C@H](C)c3cc(F)c(NS(C)(=O)=O)c(F)c3)o2)cc(C(F)(F)F)c1 [Example 116, 5-(3-Ethyl-5-trifluoromethyl-phenyl)-furan-2-carboxylic acid [1-(3,5-difluoro-4-methanesulfonylamino-phenyl)-ethyl]-amide] | 160 nM | – |
| CS(=O)(=O)Nc1c(F)cc(CNC(=O)c2ccc(-c3cccc(C(F)(F)F)c3)o2)cc1C#N [Example 121, 5-(3-Trifluoromethyl-phenyl)-furan-2-carboxylic acid 3-cyano-5-fluoro-4-methanesulfonylamino-benzylamide] | 330 nM | – |
| CS(=O)(=O)Nc1ccc(CNC(=O)c2cnc(-c3ccc(C(F)(F)F)cc3)s2)cc1F [Example 122, 2-(4-Trifluoromethyl-phenyl)-thiazole-5-carboxylic acid 3-fluoro-4-methanesulfonylamino-benzylamide] | 8800 nM | – |
| C[C@@H](NC(=O)c1ccc(-c2ccc(F)c(C(F)(F)F)c2)o1)c1cc(F)c(NS(C)(=O)=O)c(F)c1 [Example 124, 5-(4-Fluoro-3-trifluoromethyl-phenyl)-furan-2-carboxylic acid [1-(3,5-difluoro-4-methanesulfonylamino-phenyl)-ethyl]-amide] | 42 nM | – |
| CS(=O)(=O)Nc1ccc(CNC(=O)c2ccc(-c3ccc(F)c(C(F)(F)F)c3)o2)cc1F [Example 125, 5-(4-Fluoro-3-trifluoromethyl-phenyl)-furan-2-carboxylic acid 3-fluoro-4-methanesulfonylamino-benzylamide] | 530 nM | – |
| C[C@@H](NC(=O)c1cnc(-c2cc(C(F)(F)F)cc(C(F)(F)F)c2)s1)c1cc(F)c(NS(C)(=O)=O)c(F)c1 [Example 126, 2-(3,5-Bis-trifluoromethyl-phenyl)-thiazole-5-carboxylic acid [1-(3,5-difluoro-4-methanesulfonylamino-phenyl)-ethyl]-amide] | 490 nM | – |
